Results: ChEMBL document CHEMBL5120909, “Reshaping an Acyclic Nucleoside Phosphonate into a Selective Anti-hepatitis B Virus Compound” (J Med Chem, 2022)

Legend:
[1] = system: Hepatitis B virus; assay: Antiviral activity against wild type HBV infected in human HepG2 2.2.15 cells assessed as reduction in viral replication pre incubated for 3 days followed by replacement with fresh compounds for another 3 days prior to pronase treatment by RT-qPCR analysis; type: functional, organism-based, HepG2.2.15; details: for EC50: HepG2.2.15; for EC90: HepG2.2.15, 144 h, time 6 day
[2] = system: HepG2 2.2.15; assay: Cytotoxicity against human HepG2.2.15 cells assessed as reduction in cell viability; type: functional
[3] = system: Human betaherpesvirus 5; assay: Antiviral activity against HCMV AD-169 infected in HFF cells assessed as reduction in viral replication measured after 14 days; type: functional, organism-based; details: Human betaherpesvirus 5, AD-169, HFF, 336 h; for EC90: time 14 day
[4] = Cytotoxicity against human HFF cells infected with HCMV AD-169 virus assessed as reduction in cell viability by cell titer-glo assay; type: toxicity, cell-based
[5] = (§1) Selectivity index, ratio of CC50 for cytotoxicity against human HFF cells infected with HCMV AD-169 virus assessed as reduction in cell viability by cell titer-glo assay to EC50 for antiviral activity against HCMV AD-169 infected in HFF cells assessed as inhibition of virus-induced cytopathic effect measured after 14 days; type: toxicity, cell-based; details: read-out: Ratio CC50/EC50
[6] = system: Human alphaherpesvirus 3; assay: Antiviral activity against VZV Ellen infected in HFF cells assessed as reduction in viral replication measured after 14 days; type: functional, organism-based; details: Human alphaherpesvirus 3, Ellen, 336 h; for EC90: time 14 day
[7] = Cytotoxicity against human HFF cells infected with VZV Ellen virus assessed as reduction in cell viability by cell titer-glo assay; type: toxicity, cell-based
[8] = as §1, with “VZV Ellen” for “HCMV AD-169”; type: toxicity, cell-based; details: read-out: Ratio CC50/EC50
[9] = system: Human immunodeficiency virus 1; assay: Anti-HIV activity against wild type HIV-1 IIIB infected in human MT4 cells assessed as inhibition of HIV-induced cytopathic effect measured after 5 days by MTT assay; type: functional, organism-based; details: Human immunodeficiency virus 1, IIIB, MT4, 120 h
[10] = system: Human immunodeficiency virus 2; assay: Anti-HIV activity against wild type HIV-2 ROD infected in human MT4 cells assessed as inhibition of HIV-induced cytopathic effect measured after 5 days by MTT assay; type: functional, organism-based; details: Human immunodeficiency virus 2, ROD, MT4, 120 h
[11] = Cytotoxicity against human MT4 cells assessed as reduction in cell viability by MTT assay; type: toxicity, cell-based
[12] = (§2) Selectivity index, ratio of CC50 for cytotoxicity against human MT4 cells assessed as reduction in cell viability by MTT assay to EC50 for anti-HIV activity against wild type HIV-1 IIIB infected in human MT4 cells assessed as inhibition of HIV-induced cytopathic effect measured after 5 days by MTT assay; type: toxicity, cell-based; details: read-out: Ratio CC50/EC50
[13] = as §2, with “HIV-2 ROD” for “HIV-1 IIIB”; type: toxicity, cell-based; details: read-out: Ratio CC50/EC50
[14] = system: HepG2 2.2.15; assay: Cytotoxicity against human HepG2.2.15 cells assessed as reduction in cell viability by neutral red uptake assay; type: functional
[15] = system: Hepatitis B virus; assay: Antiviral activity against wild type HBV infected in human HepG2 2.2.15 cells assessed as reduction in viral replication by DNA HYB (Vision)/neutral red (Tox) assay; type: functional, organism-based; details: HepG2.2.15
[16] = system: Hepatitis B virus; assay: Antiviral activity against wild type HBV infected in human HepG2 2.2.15 cells assessed as reduction in viral replication by DNA HYB (RI)/neutral red (Tox) assay; type: functional, organism-based; details: HepG2.2.15
[17] = Selectivity index, ratio of CC50 cytotoxicity against human HepG2.2.15 cells assessed as reduction in cell viability to EC50 for antiviral activity against wild type HBV infected in human HepG2 2.2.15 cells assessed as reduction in viral replication by DNA HYB (Vision)/neutral red (Tox) assay; type: toxicity, cell-based; details: read-out: Selectivity Index
[18] = Selectivity index, ratio of CC50 cytotoxicity against human HepG2.2.15 cells assessed as reduction in cell viability to EC50 for antiviral activity against wild type HBV infected in human HepG2 2.2.15 cells assessed as reduction in viral replication by DNA HYB (RI)/neutral red (Tox) assay; type: toxicity, cell-based; details: read-out: Selectivity Index
[19] = system: Human betaherpesvirus 5; assay: Antiviral activity against HCMV AD-169 infected in HEL cells assessed as reduction in virus plaque formation; type: functional, organism-based; details: Human betaherpesvirus 5, AD-169, HEL
[20] = system: Human betaherpesvirus 5; assay: Antiviral activity against HCMV Davis infected in HEL cells assessed as reduction in virus plaque formation; type: functional, organism-based; details: Human betaherpesvirus 5, Davis
[21] = system: Human alphaherpesvirus 3; assay: Antiviral activity against VZV TK+ infected in HEL cells assessed as reduction in virus plaque formation; type: functional, organism-based; details: Human alphaherpesvirus 3, TK+
[22] = system: Human alphaherpesvirus 3; assay: Antiviral activity against VZV TK- infected in HEL cells assessed as reduction in virus plaque formation; type: functional, organism-based; details: Human alphaherpesvirus 3, TK-
[23] = Cytotoxicity against human HEL cells assessed as change in cell morphology measured after 3 days […]; type: toxicity, cell-based; details: time 3 day
[24] = system: HepG2 2.2.15; assay: Cytotoxicity against human HepG2.2.15 cells assessed as reduction in cell viability incubated for 1 to 4 hrs by MTS uptake assay; type: functional; details: time 1-4 hrs
[25] = Cytotoxicity against human HEL cells assessed as reduction in cell growth measured after 3 days by coulter counting method; type: toxicity, cell-based; details: time 3 day

SMILES | EC50 [1] | CC50 [2] | EC50 [3] | EC90 [3] | CC50 [4] | EC50 [9] | EC50 [10] | CC50 [11] | selectivity ratio at 120 h [12] | selectivity ratio at 120 h [13] | EC90 [1] | CC50 [14] | EC50 [19] | EC50 [20] | EC50 [21] | EC50 [22] | MCC at 72 h [23] | CC50 [24] | further results
C#C[C@](CO)(Cn1cnc2c(=O)[nH]c(N)nc21)OCP(=O)(O)O | 0.497 µM | > 100 µM | – | – | – | – | – | – | – | – | – | – | – | – | – | – | – | – | –
C#CC(CO)(Cn1cnc2c(=O)[nH]c(N)nc21)OCP(=O)(O)O (centres undefined) | 0.37 µM | > 100 µM | 14.4 µM | > 150 µM | > 150 µM | 3.73 µM | 1.28 µM | > 364 µM | > 97 | > 287 | 0.83 µM | > 100 µM | – | – | – | – | – | – | selectivity ratio at 336 h [5]: > 10; EC50 [6]: 116 µM; EC90 [6]: > 150 µM; CC50 [7]: > 150 µM; selectivity ratio at 336 h [8]: > 1; EC50 [15]: 0.31 µM; EC90 [15]: 0.8 µM; EC50 [16]: 0.54 µM; EC90 [16]: 1.8 µM; selectivity ratio [17]: > 322; selectivity ratio [18]: > 185
C#C[C@@](CO)(Cn1cnc2c(=O)[nH]c(N)nc21)OCP(=O)(N[C@@H](Cc1ccccc1)C(=O)OCCC)N[C@@H](Cc1ccccc1)C(=O)OCCC | 0.00927 µM | > 100 µM | – | – | – | – | – | – | – | – | – | – | – | – | – | – | – | – | –
C[C@](CO)(Cn1cnc2c(=O)[nH]c(N)nc21)OCP(=O)(O)O | 0.335 µM | > 100 µM | – | – | – | – | – | – | – | – | – | – | – | – | – | – | – | – | –
C[C@@](CO)(Cn1cnc2c(=O)[nH]c(N)nc21)OCP(=O)(O)O | 0.0423 µM | > 100 µM | – | – | – | – | – | – | – | – | – | – | – | – | – | – | – | – | –
C#C[C@@](CO)(Cn1cnc2c(=O)[nH]c(N)nc21)OCP(=O)(O)O | 0.0187 µM | > 100 µM | – | – | – | – | – | – | – | – | – | – | – | – | – | – | – | – | –
C#CC(CO)(Cn1ccc(N)nc1=O)OCP(=O)(O)O (racemic) | > 100 µM | – | 30 µM | > 30 µM | 132 µM | > 412 µM | > 412 µM | > 412 µM | 1 | 1 | > 100 µM | > 100 µM | – | – | – | – | – | – | selectivity ratio at 336 h [5]: < 4; EC50 [6]: 15.4 µM; EC90 [6]: > 150 µM; CC50 [7]: > 150 µM; selectivity ratio at 336 h [8]: > 10
Cc1cn(CC(C)(CO)OCP(=O)(O)O)c(=O)[nH]c1=O (racemic) | > 100 µM | – | – | – | – | > 406 µM | > 406 µM | > 406 µM | 1 | 1 | > 100 µM | – | > 324 µM | > 324 µM | > 324 µM | 253 µM | > 324 µM | > 100 µM | –
C#CC(CO)(Cn1cnc2c(N)ncnc21)OCP(=O)(O)O (racemic) | 25 µM | – | 30 µM | > 30 µM | 145 µM | 26.6 µM | 18 µM | > 382 µM | > 14 | > 21 | 62 µM | > 100 µM | – | – | – | – | – | – | selectivity ratio at 336 h [5]: < 5; EC50 [6]: > 30 µM; EC90 [6]: > 30 µM; CC50 [7]: 131 µM; selectivity ratio at 336 h [8]: < 4
C#CC(CO)(Cn1cc(C)c(=O)[nH]c1=O)OCP(=O)(O)O (racemic) | > 100 µM | – | 30 µM | > 30 µM | 140 µM | > 393 µM | > 393 µM | > 393 µM | 1 | 1 | > 100 µM | > 100 µM | – | – | – | – | – | – | selectivity ratio at 336 h [5]: < 5; EC50 [6]: 27.1 µM; EC90 [6]: > 30 µM; CC50 [7]: 139 µM; selectivity ratio at 336 h [8]: 5
CC(CO)(Cn1cnc2c(=O)[nH]c(N)nc21)OCP(=O)(O)O (racemic) | 0.14 µM | – | – | – | – | 32.5 µM | 42.1 µM | 228 µM | 7 | 5 | 38.1 µM | – | 5.37 µM | 5.37 µM | 2.4 µM | 3.6 µM | 300 µM | > 100 µM | CC50 at 72 h [25]: 21.6 µM
C#CC(CO)(Cn1ccc(=O)[nH]c1=O)OCP(=O)(O)O (racemic) | 21 µM | – | 150 µM | > 150 µM | > 150 µM | > 411 µM | > 411 µM | > 411 µM | 1 | 1 | 77 µM | > 100 µM | – | – | – | – | – | – | selectivity ratio at 336 h [5]: 1; EC50 [6]: 20.5 µM; EC90 [6]: > 150 µM; CC50 [7]: > 150 µM; selectivity ratio at 336 h [8]: > 7
CC(CO)(Cn1cnc2c(N)ncnc21)OCP(=O)(O)O (racemic) | 0.82 µM | – | – | – | – | > 352 µM | > 352 µM | > 352 µM | 1 | 1 | 21.8 µM | – | 115 µM | 315 µM | 30.8 µM | 36.9 µM | > 315 µM | > 100 µM | CC50 at 72 h [25]: 205 µM
CC(CO)(Cn1ccc(N)nc1=O)OCP(=O)(O)O (racemic) | > 100 µM | – | – | – | – | > 426 µM | > 426 µM | > 426 µM | 1 | 1 | > 100 µM | – | 24.9 µM | 37.3 µM | 18.8 µM | 45.6 µM | > 341 µM | > 100 µM | CC50 at 72 h [25]: > 341 µM
CC(CO)(Cn1ccc(=O)[nH]c1=O)OCP(=O)(O)O (racemic) | > 100 µM | – | – | – | – | > 425 µM | > 425 µM | > 425 µM | 1 | 1 | > 100 µM | – | 260 µM | 186 µM | 270 µM | 340 µM | > 340 µM | > 100 µM | –
Nc1nc2c(ncn2COCCO)c(=O)[nH]1 [ACYCLOVIR] | – | – | – | – | – | – | – | – | – | – | – | – | 2.27 µM | 2.08 µM | – | – | > 444 µM | – | CC50 at 72 h [25]: > 444 µM
O=c1[nH]c(=O)n([C@H]2C[C@H](O)[C@@H](CO)O2)cc1/C=C/Br [BRIVUDINE] | – | – | – | – | – | – | – | – | – | – | – | – | 0.29 µM | 0.34 µM | 0.07 µM | 36.1 µM | > 300 µM | – | CC50 at 72 h [25]: > 300 µM
Nc1nc2c(ncn2COC(CO)CO)c(=O)[nH]1 [GANCICLOVIR] | – | – | 0.86 µM | 74.2 µM | > 150 µM | – | – | – | – | – | – | – | – | – | – | – | – | – | –
Nc1ccn([C@@H]2CS[C@H](CO)O2)c(=O)n1 [LAMIVUDINE] | 0.04 µM | 2120 µM | – | – | – | 2.53 µM | 9.9 µM | > 87.2 µM | > 24 | > 9 | 0.13 µM | 2120 µM | – | – | – | – | – | > 2 µM | EC50 [15]: 0.04 µM; EC90 [15]: 0.12 µM; EC50 [16]: 0.13 µM; EC90 [16]: 0.35 µM; selectivity ratio [17]: 57400; selectivity ratio [18]: 16200
